The subject of data set [1] is A549 lung carcinoma cells. The data set can be described thus: In vitro growth inhibition, A549. Type of data set: cell-based. Particulars: human A549. How it is done:
(§1) The K562, HL-60, MDA-MB231, and melanoma (CRL-11174) human cancer cell lines were purchased from ATCC (American Tissue Type Culture Collection, Manassas, Va., United States of America). HeLa, A549, Lewis Lung Carcinoma, MDA-MB231, and melanoma cells were grown in Dulbecco's Modified Eagle Medium (DMEM) (Hyclone, Logan, Utah, United States of America) supplemented with 10% fetal bovine serum (Hyclone, Logan, Utah, United States of America) and 50 μg/mL gentamicin sulfate (Invitrogen, Carlsbad, Calif., United States of America). The HL-60, K562, and Jurkat cell lines were grown in RPMI-1640 medium (Hyclone, Logan, Utah, United States of America) supplemented with 10% fetal bovine serum and 50 μg/mL gentamicin sulfate. […]
(§2) Cells were collected 48 hours post-treatment, and cell number and viability were determined by trypan blue exclusion. […]

For data set [2], the system named is HeLa cervical cancer cells. The data set can be described thus: In vitro growth inhibition, HeLa. Type of data set: cell-based. As to conditions: Homo sapiens. How it is done:
as §1, §2

Data set [3] can be described thus: Toxicity studies, highest tolerated dose. As to conditions: intraperitoneal (IP) injection in DMSO. Type of data set: in vivo, mice.
For data set [4], the system named is HL-60 leukemia cell xenografts. The data set can be described thus: HL-60 leukemia xenografts in Balb/c nude mice. Type of data set: in vivo. As to conditions: 0.07 mg/g IP, two daily injections followed by seven days off. Here is the method:
FIG. 7C is a graph showing the effects of 3PO treatment on the growth of established HL-60 acute promyelocytic leukemia xenografts in Balb/c athymic mice. Tumors were measured daily using blunt end Vernier calipers, and mice with established tumors (130-190 mg) were blindly randomized into either a DMSO control group (•, n=11) or a 3PO treatment group (∘, n=12). Experimental mice were weighed and given intraperitoneal (i.p.) injections of either 50 μL DMSO or 0.07 mg/g 3PO in 50 μL DMSO according to a cyclical dosing regimen of two sequential daily injections of DMSO or 3PO followed by seven day rest period for the duration of the study (14 days). Arrows (↓) represent control or 3PO administrations. Statistical difference was obtained after initial injection with a p-value<0.0001.
Exponentially growing MDA-MB231 and HL-60 cells were collected in appropriate medium, washed twice and resuspended in PBS at a concentration of 20×10^7 cells/mL. […] Body weight and tumor growth were monitored daily throughout the study. Tumor masses were determined by measurement with Vernier calipers using the formula: mass (mg)=[width (mm^2)×length (mm)]/2. […]
The first tumor model tested consisted of mouse Lewis Lung Carcinoma xenografts grown in C57/Blk6 mice. For this study, mice were given IP injections of either DMSO or the calculated dose of 1 once daily for the duration of the study (14 days). […]

Data set [5] has as its system Lewis Lung Carcinoma xenografts. The data set can be described thus: F2,6BP in Lewis lung carcinoma tumor xenografts. Type of data set: in vivo, mice. As to conditions: 0.07 mg/g i.p., four hours post-injection. Here is the method:
C57Bl/6 female mice (20 g) were injected subcutaneously with 1×10^6 Lewis lung carcinoma cells. When the xenografts were measured to have a mass of between 150 and 180 mg, the mice were split into two groups. One group was injected i.p. with 0.07 mg/g of compound 1. The other group was used as a control and injected i.p. with 50 μL DMSO. Four hours post-injection, tumors were removed and homogenized in equal volumes of 0.1 M and 0.05 M NaOH. F2,6BP assays were performed as previously described. See Van Shaftingen et al., Eur. J. Biochem, 129, 191-195 (1982). […] F2,6BP concentration in the compound 1-treated mouse xenografts was 8.5±1.7 pmol/mg, while in the control mouse xenografts' F2,6BP concentration was 13.1±1.9 pmol/mg.

Data set [6] is described as follows: Echocardiographic examination of cardiac function. Type of data set: in vivo. Particulars: compound-treated mice, 0.07 mg/g i.p. How it is done: A difference in cardiac ^18F-2-DG uptake was also observed between the compound 1-treated and control group mice. Echocardiograms were performed as described in Dawn et al., Proc. Natl. Acad. Aci., U.S.A., 102, 3766-3771 (2005). […] Overall, it appears that 1 targets PFK2 activity in vivo resulting in a reduced glycolytic phenotype.

Structures are written as SMILES.

What is called IC50 is the point on the concentration scale where inhibition reaches its midpoint. Read a low IC50 as greater potency. In the case of `O=C(/C=C/c1cccnc1)c1ccncc1` [Compound 1, 3-(3-pyridinyl)-1-(4-pyridinyl)-2-propen-1-one], the IC50 in data set [1] and in data set [2] was 24 µM in each case. Further, the “highest tolerated dose producing no phenotypic side effects” value in data set [3] is reported as 0.07 mg/g. The “inhibition of tumor growth compared to DMSO controls” value in data set [4] is > 74%. Besides, the “F2,6BP concentration in tumor xenografts” value in data set [5] amounted to 8.5 ± 1.7 pmol/mg. Also, in data set [6], the ejection fraction is recorded as 71%±6%.
